Source: patent US20240207265A1, “TREATMENT OF CNS DISEASES WITH sGC STIMULATORS” (Tisento Therapeutics Inc., priority 2021, published 2024)

Tests used:
[1] = system: sGC enzyme; assay: cGMP GloSensor cell-based assay, 384-well format (HEK293); parameters: species or system human; conditions: HEK293 GloSensor 40F cGMP cells, 10 μM DETA-NONOate, geometrical mean; read-out: Glo EC50
Text: Human embryonic kidney cells (HEK293) cells expressing GloSensor™ 40F cGMP (Part No: CS182801, Promega) were used to evaluate the activity of test compounds. The luminescent biosensors (engineered luciferase) that were incorporated into these cells detect cGMP formed by the compounds stimulating the sGC enzyme and emit luminescence.
cGMP GloSensor cells were maintained in Dulbecco's Modification of Eagle's Medium (DMEM) supplemented with fetal bovine serum (FBS, 10% final) and hygromycine (200 ug/ml). The day before assay, cells were plated in DMEM with 10% FBS in a 50 μL volume at a density of 1.5×10^4 cells/well in a poly-D-lysine coated 384-well flat white-bottom plate (Corning Cat No 35661). Cells were incubated overnight at 37° C. in a humidified chamber with 5% CO2. The next day, medium was removed and cells were replaced with 40 ul/well of GloSensor™, 2 mM (Promega Cat No E1291). Cells were treated for 90 minutes at 25° C. to allow the substrate to equilibrate in the cells. Test compounds and Diethylenetriamine NONOate (DETA-NONOate) was diluted to 3 mM (20×) in serum-free CO2 independent medium and serially diluted at 4× dilutions to create 5× dose curve from which 10 ul was added to the wells (x μM concentration for test compound solution and 10 μM concentration for DETA-NONOate solution; wherein x is one of the following final concentrations: 30 μM, 7.5 μM, 1.9 μM, 469 nM, 117 nM, 29.3 nM, 7.3 nM, 1.83 nM, 0.46 nM, 0.11 nM, 0.03 nM) For the kinetics studies, luminescense was measured right away for 0.2 sec per well with Envision (Perkin Elmer). For endpoint SAR screening, data were collected after 55 min incubation at room temperature.
(§1) Concentration response data were analyzed using a 4-parameter fit (log (agonist) vs. response-variable slope). The EC50 was interpolated from the curve fit and is defined as the concentration at which the compound elicits 50% of its maximal response. When the experiment was carried out multiple times for a given compound, the geometrical mean of all experiments is reported.

[2] = target: T1, human α2β1 sGC isozyme (Homo sapiens, UniProt P33402+Q02153); assay: cGMP assay in CHO-K1 cells stably expressing human α2β1 sGC isozyme; format: cell-based; conditions: 10 μM DETA-NONOate
T1 construct: host or cells: CHO-K1
T1 sequence (P33402 1-732): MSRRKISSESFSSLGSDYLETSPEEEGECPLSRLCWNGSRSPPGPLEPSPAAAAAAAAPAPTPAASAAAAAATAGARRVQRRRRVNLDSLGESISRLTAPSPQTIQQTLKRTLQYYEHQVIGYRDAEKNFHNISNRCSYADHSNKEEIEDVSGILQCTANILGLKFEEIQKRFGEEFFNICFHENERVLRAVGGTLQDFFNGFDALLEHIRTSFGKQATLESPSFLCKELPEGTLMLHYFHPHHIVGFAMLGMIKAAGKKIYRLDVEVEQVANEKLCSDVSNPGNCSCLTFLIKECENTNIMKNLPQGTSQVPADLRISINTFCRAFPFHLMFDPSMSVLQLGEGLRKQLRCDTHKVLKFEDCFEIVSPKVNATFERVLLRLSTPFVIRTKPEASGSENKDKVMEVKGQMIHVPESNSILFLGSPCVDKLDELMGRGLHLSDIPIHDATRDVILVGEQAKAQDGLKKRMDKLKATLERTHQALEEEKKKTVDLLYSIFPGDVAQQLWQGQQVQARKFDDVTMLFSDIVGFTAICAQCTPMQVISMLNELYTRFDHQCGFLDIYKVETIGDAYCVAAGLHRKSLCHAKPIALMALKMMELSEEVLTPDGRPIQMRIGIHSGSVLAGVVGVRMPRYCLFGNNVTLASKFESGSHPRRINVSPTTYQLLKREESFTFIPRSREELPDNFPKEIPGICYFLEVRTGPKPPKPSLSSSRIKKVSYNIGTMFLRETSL
T1 sequence (Q02153 1-619): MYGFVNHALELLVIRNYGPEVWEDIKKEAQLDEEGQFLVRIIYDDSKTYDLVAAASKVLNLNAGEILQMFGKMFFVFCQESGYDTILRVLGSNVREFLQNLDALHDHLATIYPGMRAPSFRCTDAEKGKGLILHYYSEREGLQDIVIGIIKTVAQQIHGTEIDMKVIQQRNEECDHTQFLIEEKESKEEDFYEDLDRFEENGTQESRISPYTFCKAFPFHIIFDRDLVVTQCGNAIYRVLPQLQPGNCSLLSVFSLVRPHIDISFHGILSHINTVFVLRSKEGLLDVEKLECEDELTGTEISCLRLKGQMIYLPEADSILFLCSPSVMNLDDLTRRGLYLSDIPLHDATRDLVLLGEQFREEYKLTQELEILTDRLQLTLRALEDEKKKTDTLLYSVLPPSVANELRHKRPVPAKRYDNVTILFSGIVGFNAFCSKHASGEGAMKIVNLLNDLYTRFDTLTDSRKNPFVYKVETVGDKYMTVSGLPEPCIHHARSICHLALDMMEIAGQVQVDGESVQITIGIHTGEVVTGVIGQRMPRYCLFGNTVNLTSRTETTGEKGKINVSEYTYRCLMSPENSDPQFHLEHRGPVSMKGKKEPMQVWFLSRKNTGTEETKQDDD
Method: sGC stimulators were dissolved in DMSO as a 10 mM solution and stored at −20° C. To achieve desired test concentrations, stock concentrations were serially diluted into DMSO and then diluted to the appropriate concentration in assay buffer.
CHO-K1 cells stably transfected with human α2β1 sGC isozyme (generated by GenScript for Ironwood) were cultured in F-12K medium (ATCC catalog #30-2004) with 10% fetal calf serum, 4 μg/mL puromycin (Gibco catalog #A11138-03) and 0.4 mg/mL of geneticin (Gibco catalog #10131-027) in a 95% humidified atmosphere containing 5% CO2 in air at 37° C. For GC activity assays, cells were seeded in 384 well poly-D-lysine coated flat bottom plates (Fisher Scientific #08-774-311) in either 50 μL or 70 μL medium at a density of either 3×10^4 cells/well or 15×10^3, respectively. Cells were incubated for 24 hours at 37° C. in a humidified chamber supplemented with 5% CO2.
For each test concentration, the compound was diluted in 100% DMSO to 100-fold of its final assay concentration. Immediately prior to the assay, the solution was diluted 20-fold into HBSS containing calcium, magnesium, and 50 μM DETA-NONOate (5× the final assay concentration). Medium was removed and cells were washed once with 40 μL of HBSS. Cells were then incubated with 40 μL of a solution containing 0.5 mM IBMX in HBSS for 15 min at 37° C. 10 μL from the sGC stimulator/HBSS/DETA-NONOate plate was added to the cells, which were incubated for an additional 20 min at 37° C. Final DMSO concentration was 1%, final DETA-NONOate concentration was 10 μM; and final compound concentrations were 30,000 nM, 6000 nM, 1200 nM, 240 nM, 48 nM, 9.6 nM, 1.92 nM, 0.384 nM, 0.077 nM, 0.015 nM, or 0.003 nM.
Following incubation with compound, assay buffer was removed and 50 μL of ice-cold 10% acetic acid+150 ng/mL internal standard (+3 cGMP) was added to each well. Samples were incubated on ice for 30-60 min. Following centrifugation at 4° C. for 5 min at 1000×g to pellet cell debris, the supernatant was transferred to a clean plate and the samples analyzed for cGMP content.
as §1, with “Data” for “Concentration response data”, “with” for “using”, “(log(agonist)” for “(log (agonist)”, “slope) using GraphPad Prism Software v.8.” for “slope).”

EC50 [1]: ≤ 0.1 µM
EC50 [2]: ≤ 0.1 µM
Structure (SMILES): Cc1cc(F)c(Cc2nc(-c3ncc(Cl)c(O)n3)cn3ccnc23)cc1F [Compound I-17, 5-Chloro-2-(8-(2,5-difluoro-4-methylbenzyl)imidazo[1,2-a]pyrazin-6-yl)pyrimidin-4-ol]
